Drawing on PubChem BioAssay (NCI), this text covers GI50 and TGI for seven compounds.

“And” between values parts separate entries of the source, which are not always exact repeats. Equal values may be shown once.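 Following 48 hours of exposure in 96-well plates, responses at five concentrations were used to interpolate endpoints linearly. The concentration for 50% growth inhibition is given as GI50. Definition used: TGI = concentration required for complete inhibition of growth.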 Some results are limits rather than exact numbers.

Test systems include 786-0 renal; LOX IMVI melanoma; HS 578T breast; NCI-H226 lung; RXF 393 renal; IGROV1 ovarian; SW-620 colon; RPMI-8226 leukemia; HCT-15 colon; UO-31 renal.
Holding throughout (assay): inhibition of tumour cell growth, NCI panel, 48 h

As for `O=C(NO)C(O)C(O)C(O)C(O)CO` (stereo not drawn), the GI50 with 786-0 renal is > 100 µM and 55.9 µM; in the assay on LOX IMVI melanoma, > 100 µM and 94.8 µM; in the assay with HS 578T breast it was over 100 µM; in the assay on NCI-H226 lung, > 71.5 µM and 50.4 µM; with RXF 393 renal, over 100 µM; in the assay with IGROV1 ovarian it was > 100 µM and 23.3 µM. The GI50 in the assay with SW-620 colon, with RPMI-8226 leukemia, in the assay on HCT-15 colon and with UO-31 renal was over 100 µM in each case. The TGI with 786-0 renal is over 100 µM; in the assay with LOX IMVI melanoma, over 100 µM; with HS 578T breast, over 100 µM; with NCI-H226 lung, over 100 µM; in the assay on RXF 393 renal, over 100 µM; in the assay with IGROV1 ovarian it was > 100 µM and 80.2 µM. Also, the TGI with SW-620 colon, in the assay with RPMI-8226 leukemia, in the assay with HCT-15 colon and in the assay with UO-31 renal was over 100 µM in each case.
With `CC1(C)CC2(C)OC2C2(C1)N=NC(=Nc1ccccc1)O2` (stereo not drawn), the GI50 in the assay with 786-0 renal was 2.33 µM; in the assay with LOX IMVI melanoma it was 1.06 µM; with HS 578T breast, 17.3 µM; in the assay with NCI-H226 lung, 10.7 µM; with RXF 393 renal, 2.19 µM; in the assay with IGROV1 ovarian, 2.48 µM. Also, the GI50 in the assay with SW-620 colon was 2.35 µM; in the assay on RPMI-8226 leukemia, 2.41 µM; in the assay with HCT-15 colon it was 1.68 µM; in the assay with UO-31 renal, 1.67 µM. Besides, the TGI with 786-0 renal was 5.63 µM; in the assay on LOX IMVI melanoma, 2.62 µM; with HS 578T breast, 71.7 µM; with NCI-H226 lung, 29.6 µM; with RXF 393 renal, 6.26 µM; in the assay on IGROV1 ovarian, 5.99 µM. The TGI in the assay with SW-620 colon is 9.28 µM; with RPMI-8226 leukemia, 6.82 µM; in the assay on HCT-15 colon it was 4.62 µM; in the assay on UO-31 renal, 4.02 µM.
Take `CCCCCCCCCCCCCCCC(=O)OCC1OC(n2ccc(N)nc2=O)C(O)C1O` (stereo not drawn): the TGI is over 50.5 µM in the assay on 786-0 renal; over 100 µM with LOX IMVI melanoma; over 100 µM in the assay with HS 578T breast; over 100 µM with NCI-H226 lung; over 100 µM with RXF 393 renal; over 100 µM in the assay on IGROV1 ovarian. The TGI in the assay on SW-620 colon is over 100 µM; with RPMI-8226 leukemia, over 100 µM; in the assay with HCT-15 colon, over 100 µM; in the assay on UO-31 renal, over 44.7 µM.
As for `C=C(CC1(CC(=C)c2ccc(C(=O)O)cc2)C(=O)N(C)C(=O)N(C)C1=O)c1ccc(C(=O)O)cc1`, the GI50 with 786-0 renal was over 100 µM; with LOX IMVI melanoma, 80.8 µM; in the assay with HS 578T breast, 67.8 µM; in the assay on NCI-H226 lung, over 100 µM; in the assay with RXF 393 renal it was over 100 µM; in the assay with IGROV1 ovarian, 47.4 µM. The GI50 is over 100 µM in the assay on SW-620 colon, 21.8 µM in the assay with RPMI-8226 leukemia, over 100 µM in the assay on HCT-15 colon and 57.2 µM in the assay on UO-31 renal. Moreover, the TGI in the assay with 786-0 renal, with LOX IMVI melanoma, in the assay on HS 578T breast, with NCI-H226 lung, with RXF 393 renal and with IGROV1 ovarian was over 100 µM in each case. For the same compound, the TGI with SW-620 colon, with RPMI-8226 leukemia, with HCT-15 colon and with UO-31 renal was over 100 µM in each case.
For `C=C(C)[C@@H]1CCC[C@]2(C(=O)O)CC[C@]3(C)[C@@H](CC[C@@H]4[C@@]5(C)C/C(=C/c6ccncc6)C(=O)C(C)(C)[C@@H]5CC[C@]43C)[C@@H]12`, the GI50 in the assay with 786-0 renal was 2.24 µM; in the assay on LOX IMVI melanoma it was 1.84 µM; in the assay with HS 578T breast, 19.4 µM; with NCI-H226 lung, 4.66 µM; with RXF 393 renal it was 2.09 µM; in the assay with IGROV1 ovarian it was 3.02 µM. Besides, the GI50 with SW-620 colon is 3.14 µM; in the assay with RPMI-8226 leukemia, 1.8 µM; in the assay on HCT-15 colon, 1.85 µM; in the assay on UO-31 renal, 1.74 µM. Besides, the TGI is 6.23 µM with 786-0 renal; 3.5 µM in the assay on LOX IMVI melanoma; over 100 µM with HS 578T breast; 53.4 µM with NCI-H226 lung; 4.47 µM in the assay on RXF 393 renal; 9.31 µM in the assay with IGROV1 ovarian. Also, the TGI was found to be 9.6 µM with SW-620 colon, 7.5 µM in the assay with RPMI-8226 leukemia, 4.31 µM in the assay on HCT-15 colon and 4.65 µM with UO-31 renal.
For the compound `COC1C(CO)OC(n2c3ccccc3c3c4c(c5c6ccccc6[nH]c5c32)C(=O)NC4=O)C(O)C1OC(=O)C(N)CCCCN` (stereo not drawn), the GI50 was 0.653 µM in the assay on 786-0 renal; 0.261 µM with LOX IMVI melanoma; 1.93 µM in the assay with HS 578T breast; 0.777 µM with NCI-H226 lung; 2.44 µM with RXF 393 renal; 0.61 µM with IGROV1 ovarian. The GI50 was 0.198 µM in the assay on SW-620 colon, over 15.7 µM with RPMI-8226 leukemia, 8.98 µM with HCT-15 colon and 0.997 µM with UO-31 renal. In addition, the TGI in the assay on 786-0 renal was over 21.5 µM; in the assay on HS 578T breast, 12.2 µM; in the assay on NCI-H226 lung, 9.59 µM; in the assay on RXF 393 renal, 14.8 µM; with IGROV1 ovarian, 4.42 µM; with SW-620 colon it was over 16.9 µM. The TGI with RPMI-8226 leukemia is over 35.5 µM; in the assay on HCT-15 colon it was over 39.5 µM; in the assay on UO-31 renal, 5.5 µM.
`O=[N+]([O-])O.[NH-]C1CCCCC1[NH-].[NH-]C1CCCCC1[NH-].[NH-]C1CCCCC1[NH-].[OH-].[OH-].[OH-].[Pt+4].[Pt+4].[Pt+4]` (stereo not drawn): the GI50 with 786-0 renal is 0.0408 µM; with LOX IMVI melanoma it was 0.467 µM; in the assay with HS 578T breast, 12.1 µM; in the assay with NCI-H226 lung, 1.37 µM; in the assay on RXF 393 renal, 1.2 µM; in the assay on IGROV1 ovarian it was 0.258 µM. Besides, the GI50 in the assay on RPMI-8226 leukemia was 0.0311 µM; with HCT-15 colon, 0.223 µM; in the assay with UO-31 renal, 0.373 µM. Also, the TGI was 3.19 µM in the assay with 786-0 renal; over 85.7 µM with LOX IMVI melanoma; over 61.9 µM in the assay on HS 578T breast; 27.5 µM in the assay with NCI-H226 lung; 17.3 µM in the assay with RXF 393 renal; 19.4 µM with IGROV1 ovarian. Besides, the TGI was over 100 µM in the assay on SW-620 colon, over 24.2 µM with RPMI-8226 leukemia, over 43.5 µM in the assay on HCT-15 colon and 15.5 µM with UO-31 renal.
